Earlier results on one compound are cited in patent US11344598B2, “Herbal nanoformulations for treating psoriasis and other skin conditions” (Sirbal Ltd., priority 2016, dated 2022).

For the series the following is noted: in words.

Take `CCC(=O)O[C@]1(C(=O)CCl)[C@@H](C)C[C@H]2[C@@H]3CCC4=CC(=O)C=C[C@]4(C)[C@@]3(F)[C@@H](O)C[C@@]21C` [Clobetasol propionate, clobetasol propionate]: the solubility in water entry is recorded as “insoluble in water”.
